Source: patent EP0918774B9, “ANDROGEN RECEPTOR MODULATOR COMPOUNDS AND METHODS” (LIGAND PHARMACEUTICALS INCORPORATED, priority 1996, dated 1997)
Read-outs that look alike come from different tables or passages of the source.

Key:
[1] = target: T1, human AR (Homo sapiens, UniProt P10275); test: cell-based; format: cell-based
T1 construct: expressed in transfected cells; host or cells: CV-1 cells (African green monkey kidney fibroblasts), transient calcium phosphate transfection
T1 sequence (P10275 1-920): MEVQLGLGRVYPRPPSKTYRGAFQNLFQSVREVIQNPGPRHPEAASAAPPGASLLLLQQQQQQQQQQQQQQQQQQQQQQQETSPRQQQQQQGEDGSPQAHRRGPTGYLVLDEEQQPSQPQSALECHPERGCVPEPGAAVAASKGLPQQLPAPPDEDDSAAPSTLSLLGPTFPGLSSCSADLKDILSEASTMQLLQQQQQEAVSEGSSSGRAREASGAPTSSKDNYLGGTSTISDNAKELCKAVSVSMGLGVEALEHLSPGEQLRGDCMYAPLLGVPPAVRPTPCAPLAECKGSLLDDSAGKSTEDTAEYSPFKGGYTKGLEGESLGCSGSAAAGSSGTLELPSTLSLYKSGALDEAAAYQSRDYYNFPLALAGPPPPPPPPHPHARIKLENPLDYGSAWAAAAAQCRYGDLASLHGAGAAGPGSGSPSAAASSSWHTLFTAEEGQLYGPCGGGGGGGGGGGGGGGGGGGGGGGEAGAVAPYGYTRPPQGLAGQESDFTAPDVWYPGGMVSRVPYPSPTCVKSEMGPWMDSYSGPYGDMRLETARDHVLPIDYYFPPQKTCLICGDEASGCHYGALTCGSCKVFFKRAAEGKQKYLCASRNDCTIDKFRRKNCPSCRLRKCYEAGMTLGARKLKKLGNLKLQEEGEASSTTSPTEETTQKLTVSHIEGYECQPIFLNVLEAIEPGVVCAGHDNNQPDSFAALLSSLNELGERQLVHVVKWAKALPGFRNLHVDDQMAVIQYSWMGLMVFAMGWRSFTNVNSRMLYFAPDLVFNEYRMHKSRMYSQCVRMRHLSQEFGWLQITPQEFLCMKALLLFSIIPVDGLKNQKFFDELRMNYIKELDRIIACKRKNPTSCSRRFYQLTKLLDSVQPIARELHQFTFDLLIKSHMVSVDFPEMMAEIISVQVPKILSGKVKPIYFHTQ
Source text: The co-transfection assay provides a method for identifying functional agonists and partial agonists which mimic, or antagonists which inhibit, the effect of native hormones, and quantifying their activity for responsive IR proteins. In this regard, the co-transfection assay mimics an in vivo system in the laboratory. Importantly, activity in the co-transfection assay correlates very well with known in vivo activity, such that the co-transfection assay functions as a qualitative and quantitative predictor of a tested compounds in vivo pharmacology. See, e.g., T. Berger et al. 41 J. Steroid Biochem. Molec.
(§1) CV-1 cells (African green monkey kidney fibroblasts) were cultured in the presence of Dulbecco's Modified Eagle Medium (DMEM) supplemented with 10% charcoal resinstripped fetal bovine serum then transferred to 96-well microtiter plates one day prior to transfection.
The reporter plasmid, MTV-LUC, contains the cDNA for firefly luciferase (LUC) under control of the mouse mammary tumor virus (MTV) long terminal repeat, a conditional promoter containing an androgen response element. See e.g, Berger et al. supra. In addition, pRS-β-Gal, coding for constitutive expression of E. colβ-galactosidase (β-Gal), was included as an internal control for evaluation of transfection efficiency and compound toxicity.
(§2) Three to four replicates were used for each sample.
(§3) After 40 hours, the cells were washed with PBS, lysed with a Triton X-100-based buffer and assayed for LUC and β-Gal activities using a luminometer or spectrophotometer, respectively. For each replicate, the normalized response (NR) was calculated as: LUC response/β-Gal rate where β-Gal rate = β-Gal•1x10^-5/β-Gal incubation time.

[2] = target: T1, human AR; test: cell-based; format: binding
[3] = target: T2, PR (Homo sapiens, UniProt P06401); test: Co-transfection assay, PR agonist mode; format: cell-based; parameters: expressed in transfected cells; host or cells: CV-1 cells
T2 sequence (P06401 1-933): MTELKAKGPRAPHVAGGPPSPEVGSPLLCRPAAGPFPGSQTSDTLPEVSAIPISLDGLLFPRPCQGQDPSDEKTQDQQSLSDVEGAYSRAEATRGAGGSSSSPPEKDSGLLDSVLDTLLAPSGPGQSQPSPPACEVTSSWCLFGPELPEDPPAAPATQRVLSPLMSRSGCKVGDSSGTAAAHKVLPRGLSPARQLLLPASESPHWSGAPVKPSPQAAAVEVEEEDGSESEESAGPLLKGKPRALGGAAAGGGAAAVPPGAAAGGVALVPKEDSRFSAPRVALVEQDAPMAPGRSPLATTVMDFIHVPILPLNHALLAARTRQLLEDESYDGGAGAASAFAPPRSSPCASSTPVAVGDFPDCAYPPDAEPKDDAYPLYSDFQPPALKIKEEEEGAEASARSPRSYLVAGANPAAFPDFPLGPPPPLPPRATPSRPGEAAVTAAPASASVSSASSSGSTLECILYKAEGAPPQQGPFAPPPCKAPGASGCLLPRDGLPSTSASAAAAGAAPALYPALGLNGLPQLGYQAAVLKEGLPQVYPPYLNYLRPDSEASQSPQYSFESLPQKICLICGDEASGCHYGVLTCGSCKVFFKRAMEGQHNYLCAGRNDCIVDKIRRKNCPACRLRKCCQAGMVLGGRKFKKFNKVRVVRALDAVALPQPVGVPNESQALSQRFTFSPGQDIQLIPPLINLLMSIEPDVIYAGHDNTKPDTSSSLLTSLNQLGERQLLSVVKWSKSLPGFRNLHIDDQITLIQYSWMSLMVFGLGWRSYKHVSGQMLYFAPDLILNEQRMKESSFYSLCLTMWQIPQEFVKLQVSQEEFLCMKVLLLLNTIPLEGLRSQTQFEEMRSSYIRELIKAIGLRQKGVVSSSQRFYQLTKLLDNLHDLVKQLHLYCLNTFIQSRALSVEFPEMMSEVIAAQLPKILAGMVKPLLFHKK
Protocol: as §1, §2, §3

Structure (SMILES)	AR Agonist CV-1 Cells Efficacy (%) [1]	AR Antagonist CV-1 Cells Efficacy (%) [1] [%]	EC50 [1] [nM]	IC50 [1] [nM]	EC50 ([1]; read-out: AR Potency Agon) [nM]	Ki ([2]; read-out: AR Binding Ki) [nM]	EC50 [3] [nM]	AR Antagonist CV-1 Cells Efficacy (%) ([1]; % of maximal inhibition, fixed DHT at EC50, na = not active)	AR Agonist CV-1 Cells Efficacy (%) ([1]; percent maximal response relative to reference agonist DHT, na = not active)	EC50 ([1]; read-out: AR Potency Agon, Table 2, na = not active) [nM]	Ki [2] [nM]
CC12CCCN1c1cc3nc(O)cc(C(F)(F)F)c3cc1CC2 (racemic) [Compound 101, (R/S)-6,7,7a,11-Tetrahydro-7a-methyl-4-trifluoromethyl-2-pyridono[5,6-g]pyrrolidino[1,2-a]quinoline]	na (key: na: not active (i.e. efficacy of <20 and potency of >10,000))	80	> 10000	362	> 10000	169	> 10000				
CC12CCCN1c1cc3[nH]c(=O)c(F)c(C(F)(F)F)c3cc1CC2 (racemic) [Compound 102, (R/S)-3-Fluoro-6,7,7a,11-tetrahydro-7a-methyl-4-trifluoromethyl-2-pyridono[5,6-g]pyrrolidino[1,2-a]quinoline]			> 10000	29			> 10000	86	na (not active (i.e. efficacy of <20 and potency of >10,000))	> 10000	78
